Activity calls are given as the source filed them. No cut-off for these calls is given here.
Test system: VL51
Test: Antiproliferative activity against human VL51 cells assessed as proliferating cells at 1 uM incubated for 72 hrs by MTT assay relative to control
Type: functional
Conditions: not given

Point of comparison: COc1ccc(Cn2cc3c(c2-c2ccc(OC)cc2)CCc2cnoc2-3)cc1, Activity 49.4%. Against it:
- COc1ccc(Cn2cc3c(c2-c2ccccc2)CCc2cnoc2-3)cc1 — lower, 40.9%
- COc1ccc(Cn2cc3c(c2-c2cc(OC)c(OC)c(OC)c2)CCc2cnoc2-3)cc1N — lower, 34.7%
- COc1cc(Cn2cc3c(c2)-c2oncc2CC3)cc(OC)c1 — lower, 38%

Test system: not listed separately
Test: Antiproliferative activity against human MINO cells assessed as proliferating cells at 1 uM incubated for 72 hrs by MTT assay relative to control
Type: functional
Conditions: not given

Point of comparison: COc1cc(Cn2cc3c(c2)-c2oncc2CC3)cc(OC)c1, Activity 0.8%. Against it:
- COc1ccc(Cn2cc3c(c2-c2ccccc2)CCc2cnoc2-3)cc1 — higher, 8.4%
- COc1ccc(Cn2cc3c(c2-c2cc(OC)c(OC)c(OC)c2)CCc2cnoc2-3)cc1N — higher, 9.31%
- COc1ccc(Cn2cc3c(c2-c2ccc(OC)cc2)CCc2cnoc2-3)cc1 — higher, 29.9%

Test system: not listed separately
Test: Antiproliferative activity against human HBL1 cells assessed as proliferating cells at 1 uM incubated for 72 hrs by MTT assay relative to control
Type: functional
Conditions: not given

Point of comparison: COc1ccc(Cn2cc3c(c2-c2cc(OC)c(OC)c(OC)c2)CCc2cnoc2-3)cc1N, Activity 12.9%. Against it:
- COc1ccc(Cn2cc3c(c2-c2ccccc2)CCc2cnoc2-3)cc1 — higher, 21.5%
- COc1ccc(Cn2cc3c(c2-c2ccc(OC)cc2)CCc2cnoc2-3)cc1 — higher, 57.1%
- COc1cc(Cn2cc3c(c2)-c2oncc2CC3)cc(OC)c1 — lower, 7.1%

Test system: SU-DHL10
Test: Antiproliferative activity against human SU-DHL-10 cells assessed as proliferating cells at 1 uM incubated for 72 hrs by MTT assay relative to control
Type: functional
Conditions: not given

Point of comparison: COc1ccc(Cn2cc3c(c2-c2ccc(OC)cc2)CCc2cnoc2-3)cc1, Activity 47.4%. Against it:
- COc1ccc(Cn2cc3c(c2-c2ccccc2)CCc2cnoc2-3)cc1 — lower, 13%
- COc1ccc(Cn2cc3c(c2-c2cc(OC)c(OC)c(OC)c2)CCc2cnoc2-3)cc1N — lower, 12%
- COc1cc(Cn2cc3c(c2)-c2oncc2CC3)cc(OC)c1 — lower, 30.5%

Test system: VL51
Test: Antiproliferative activity against human VL51 cells assessed as inhibition of cell proliferation incubated for 72 hrs by MTT assay
Type: functional, cell-based
Conditions: VL51, 72 h

Point of comparison: COc1cc(Cn2cc3c(c2)-c2oncc2CC3)cc(OC)c1, IC50 40 nM. Against it:
- COc1ccc(Cn2cc3c(c2-c2ccccc2)CCc2cnoc2-3)cc1 — 6.8-fold higher, 270 nM
- COc1ccc(Cn2cc3c(c2-c2cc(OC)c(OC)c(OC)c2)CCc2cnoc2-3)cc1N — 2.5-fold higher, 100 nM
- COc1ccc(Cn2cc3c(c2-c2ccc(OC)cc2)CCc2cnoc2-3)cc1 — 28-fold higher, 1100 nM

Test system: not listed separately
Test: Antiproliferative activity against human MINO cells assessed as inhibition of cell proliferation incubated for 72 hrs by MTT assay
Type: functional, cell-based
Conditions: not given

Point of comparison: COc1ccc(Cn2cc3c(c2-c2cc(OC)c(OC)c(OC)c2)CCc2cnoc2-3)cc1N, IC50 70 nM. Against it:
- COc1ccc(Cn2cc3c(c2-c2ccccc2)CCc2cnoc2-3)cc1 — 3.3-fold higher, 230 nM
- COc1ccc(Cn2cc3c(c2-c2ccc(OC)cc2)CCc2cnoc2-3)cc1 — 16-fold higher, 1100 nM
- COc1cc(Cn2cc3c(c2)-c2oncc2CC3)cc(OC)c1 — 3.5-fold lower, 20 nM

Test system: not listed separately
Test: Antiproliferative activity against human HBL1 cells assessed as inhibition of cell proliferation incubated for 72 hrs by MTT assay
Type: functional, cell-based
Conditions: HBL1, 72 h

Point of comparison: COc1ccc(Cn2cc3c(c2-c2ccccc2)CCc2cnoc2-3)cc1, IC50 250 nM. Against it:
- COc1ccc(Cn2cc3c(c2-c2cc(OC)c(OC)c(OC)c2)CCc2cnoc2-3)cc1N — 2.8-fold lower, 90 nM
- COc1ccc(Cn2cc3c(c2-c2ccc(OC)cc2)CCc2cnoc2-3)cc1 — 4.8-fold higher, 1200 nM
- COc1cc(Cn2cc3c(c2)-c2oncc2CC3)cc(OC)c1 — 12-fold lower, 20 nM

Test system: SU-DHL10
Test: Antiproliferative activity against human SU-DHL-10 cells assessed as inhibition of cell proliferation incubated for 72 hrs by MTT assay
Type: functional, cell-based
Conditions: SU-DHL10, 72 h

Point of comparison: COc1ccc(Cn2cc3c(c2-c2cc(OC)c(OC)c(OC)c2)CCc2cnoc2-3)cc1N, IC50 100 nM. Against it:
- COc1ccc(Cn2cc3c(c2-c2ccccc2)CCc2cnoc2-3)cc1 — 2.8-fold higher, 280 nM
- COc1ccc(Cn2cc3c(c2-c2ccc(OC)cc2)CCc2cnoc2-3)cc1 — 17-fold higher, 1700 nM
- COc1cc(Cn2cc3c(c2)-c2oncc2CC3)cc(OC)c1 — 3.3-fold lower, 30 nM

Test system: VL51
Test: Induction of cell cycle arrest in human VL51 cells assessed as accumulation at G2/M phase at 50 nM incubated for 24 to 72 hrs by […]
Type: functional
Conditions: time 24-72 hrs

In the case of COc1cc(Cn2cc3c(c2)-c2oncc2CC3)cc(OC)c1, the Activity is reported as “Active”.

Test system: MINO
Test: Induction of cell cycle arrest in human MINO cells assessed as accumulation at G2/M phase at 50 nM incubated for 24 to 72 hrs by […]
Type: functional
Conditions: time 24-72 hrs

In the case of COc1cc(Cn2cc3c(c2)-c2oncc2CC3)cc(OC)c1, the Activity is reported as “Active”.

Test system: VL51
Test: Induction of cell cycle arrest in human VL51 cells assessed as accumulation at subG0 phase at early time point at 50 to 500 nM incubated upto 72 hrs by […]
Type: functional
Conditions: dose 50-500 nM

With COc1cc(Cn2cc3c(c2)-c2oncc2CC3)cc(OC)c1 the Activity was “Active”.

Test system: MINO
Test: Induction of cell cycle arrest in human MINO cells assessed as accumulation at subG0 phase at early time point at 50 to 500 nM incubated upto 72 hrs by […]
Type: functional
Conditions: dose 50-500 nM

In the case of COc1cc(Cn2cc3c(c2)-c2oncc2CC3)cc(OC)c1, the Activity is reported as “Active”.

Test system: VL51
Test: Induction of apoptosis in human VL51 cells at 50 to 500 nM incubated for 24 to 72 hrs by annexin V-FITC/PI staining based analysis
Type: functional, cell-based
Conditions: dose 50-500 nM, time 24-72 hrs

For COc1cc(Cn2cc3c(c2)-c2oncc2CC3)cc(OC)c1, the Activity was “Active”.

Test system: MINO
Test: Induction of apoptosis in human MINO cells at 50 to 500 nM incubated for 24 to 72 hrs by annexin V-FITC/PI staining based analysis
Type: functional, cell-based
Conditions: dose 50-500 nM, time 24-72 hrs

With COc1cc(Cn2cc3c(c2)-c2oncc2CC3)cc(OC)c1 the Activity was “Active”.

Test system: PBMC
Test: Induction of apoptosis in human PBMC cells at 500 nM incubated for 24 to 48 hrs by annexin V staining based analysis relative to control
Type: toxicity, cell-based
Conditions: 0.5 µM, time 24-48 hrs

Work on COc1cc(Cn2cc3c(c2)-c2oncc2CC3)cc(OC)c1 yielded an Activity of 15%.

Test system: MINO
Test: Upregulation of CENPA in human MINO cells at 100 nM incubated for 8 to 24 hrs by RNA sequencing analysis
Type: functional, cell-based
Conditions: time 8-24 hrs

In the case of COc1cc(Cn2cc3c(c2)-c2oncc2CC3)cc(OC)c1, the Activity is reported as “Active”.

Test system: MINO
Test: Upregulation of CCNB1 in human MINO cells at 100 nM incubated for 8 to 24 hrs by RNA sequencing analysis
Type: functional, cell-based
Conditions: time 8-24 hrs

In the case of COc1cc(Cn2cc3c(c2)-c2oncc2CC3)cc(OC)c1, the Activity is reported as “Active”.

Test system: MINO
Test: Upregulation of CCNB2 in human MINO cells at 100 nM incubated for 8 to 24 hrs by RNA sequencing analysis
Type: functional, cell-based
Conditions: time 8-24 hrs

In the case of COc1cc(Cn2cc3c(c2)-c2oncc2CC3)cc(OC)c1, the Activity is reported as “Active”.

Test system: MINO
Test: Upregulation of AURKA in human MINO cells at 100 nM incubated for 8 to 24 hrs by RNA sequencing analysis
Type: functional, cell-based
Conditions: time 8-24 hrs

In the case of COc1cc(Cn2cc3c(c2)-c2oncc2CC3)cc(OC)c1, the Activity is reported as “Active”.

Test system: MINO
Test: Upregulation of PLK1 in human MINO cells at 100 nM incubated for 8 to 24 hrs by RNA sequencing analysis
Type: functional, cell-based
Conditions: time 8-24 hrs

In the case of COc1cc(Cn2cc3c(c2)-c2oncc2CC3)cc(OC)c1, the Activity is reported as “Active”.

Test system: MINO
Test: Upregulation of CENPE in human MINO cells at 100 nM incubated for 8 to 24 hrs by RNA sequencing analysis
Type: functional, cell-based
Conditions: time 8-24 hrs

For COc1cc(Cn2cc3c(c2)-c2oncc2CC3)cc(OC)c1, the Activity was “Active”.

Test system: MINO
Test: Upregulation of BIRC5 in human MINO cells at 100 nM incubated for 8 to 24 hrs by RNA sequencing analysis
Type: functional, cell-based
Conditions: time 8-24 hrs

With COc1cc(Cn2cc3c(c2)-c2oncc2CC3)cc(OC)c1 the Activity was “Active”.

Test system: MCF7
Test: Cytotoxicity against human MCF7 cells assessed as cell growth inhibition
Type: functional, cell-based
Conditions: not given

Point of comparison: COc1cc(Cn2cc3c(c2)-c2oncc2CC3)cc(OC)c1, IC50 290 nM. Against it:
- COc1ccc(Cn2cc3c(c2-c2ccccc2)CCc2cnoc2-3)cc1 — within 1.5-fold, 380 nM
- COc1ccc(Cn2cc3c(c2-c2cc(OC)c(OC)c(OC)c2)CCc2cnoc2-3)cc1N — within 1.5-fold, 240 nM
- COc1ccc(Cn2cc3c(c2-c2ccc(OC)cc2)CCc2cnoc2-3)cc1 — higher, > 5000 nM

Biological target: Tubulin
Test: Inhibition of tubulin assembly (unknown origin)
Type: protein-complex assay, Homo sapiens
Conditions: not given

Point of comparison: COc1ccc(Cn2cc3c(c2-c2cc(OC)c(OC)c(OC)c2)CCc2cnoc2-3)cc1N, IC50 1700 nM. Against it:
- COc1ccc(Cn2cc3c(c2-c2ccccc2)CCc2cnoc2-3)cc1 — within 1.5-fold, 2100 nM
- COc1ccc(Cn2cc3c(c2-c2ccc(OC)cc2)CCc2cnoc2-3)cc1 — within 1.5-fold, 2000 nM
- COc1cc(Cn2cc3c(c2)-c2oncc2CC3)cc(OC)c1 — 1.6-fold higher, 2800 nM

Biological target: Tubulin (Homo sapiens) (UniProt P68371+Q9H4B7+P0DPH7+P68366+Q13509+Q71U36+P04350+Q3ZCM7+P07437+P68363+Q9BQE3+Q6PEY2+Q13885+Q9BVA1+Q9BUF5)
Test: Inhibition of [3H]Colchicine binding to tubulin (unknown origin) at 5 uM relative to control
Type: protein-complex assay
Conditions: not given

Point of comparison: COc1ccc(Cn2cc3c(c2-c2cc(OC)c(OC)c(OC)c2)CCc2cnoc2-3)cc1N, inhibition 57%. Against it:
- COc1ccc(Cn2cc3c(c2-c2ccccc2)CCc2cnoc2-3)cc1 — higher, 77%
- COc1ccc(Cn2cc3c(c2-c2ccc(OC)cc2)CCc2cnoc2-3)cc1 — lower, 55%
- COc1cc(Cn2cc3c(c2)-c2oncc2CC3)cc(OC)c1 — higher, 88%
